In ChEMBL document CHEMBL3885881, “DrugMatrix”:

Organism: Rattus norvegicus
Test: DrugMatrix - Regimen: Daily Repeat
Type: toxicity, organism-based, Sprague-Dawley
Set-up: regimen Daily Repeat, gender Male, age 6-8 weeks
Settings: in vivo, iv, vehicle 100 % SALINE; for ABSOLUTE BASOPHIL / ABSOLUTE EOSINOPHIL / ABSOLUTE LYMPHOCYTE / ABSOLUTE MONOCYTE / ABSOLUTE SEGMENTED NEUTROPHIL / BASOPHIL / EOSINOPHIL / ERYTHROCYTE COUNT / HEMATOCRIT / HEMOGLOBIN / LEUKOCYTE COUNT / LYMPHOCYTE / MEAN CORPUSCULAR HEMOGLOBIN / MEAN CORPUSCULAR HEMOGLOBIN CONCENTRATION / MEAN CORPUSCULAR VOLUME / MONOCYTE / NEUTROPHIL / NUCLEATED RED BLOOD CELLS / PLATELET COUNT: tissue Blood; for ALANINE AMINOTRANSFERASE / ALBUMIN / ALKALINE PHOSPHATASE / ASPARTATE AMINOTRANSFERASE / BLOOD UREA NITROGEN / CARBON DIOXIDE / CHLORIDE / CHOLESTEROL / CREATINE PHOSPHOKINASE / CREATININE / GLUCOSE / LACTATE DEHYDROGENASE / LIPASE / PHOSPHORUS / POTASSIUM / SODIUM / TOTAL BILIRUBIN / TOTAL PROTEIN / URIC ACID: tissue Plasma
[1] = 33 mg/kg, 72 h, dose level Low, time 3 day
[2] = 33 mg/kg, 120 h, dose level Low, time 5 day
[3] = 1000 mg/kg, 72 h, dose level High, time 3 day
[4] = 1000 mg/kg, 120 h, dose level High, time 5 day

## CO/N=C(\C(=O)N[C@@H]1C(=O)N2C(C(=O)O)=C(COC(C)=O)CS[C@H]12)c1csc(N)n1 [CEFOTAXIME]
[1]
  ABSOLUTE BASOPHIL: 0 CELLS/uL
  ABSOLUTE EOSINOPHIL: 0 CELLS/uL
  ABSOLUTE LYMPHOCYTE: 11282.67 CELLS/uL
  ABSOLUTE MONOCYTE: 120 CELLS/uL
  ABSOLUTE SEGMENTED NEUTROPHIL: 730.67 CELLS/uL
  BASOPHIL: 0%
  EOSINOPHIL: 0%
  ERYTHROCYTE COUNT: 5.79 x10E6/uL
  HEMATOCRIT: 35.7%
  HEMOGLOBIN: 13.43 G/DL
  LEUKOCYTE COUNT: 12.13 x10E3/uL
  LYMPHOCYTE: 93%
  MEAN CORPUSCULAR HEMOGLOBIN: 23.2 pg
  MEAN CORPUSCULAR HEMOGLOBIN CONCENTRATION: 37.63 G/DL
  MEAN CORPUSCULAR VOLUME: 61.63 fL
  MONOCYTE: 0.67%
  NEUTROPHIL: 6.33%
  NUCLEATED RED BLOOD CELLS: 0 /100WBC
  PLATELET COUNT: 1231.67 x10E3/uL
  ALANINE AMINOTRANSFERASE: 55 u/L
  ALBUMIN: 4.17 G/DL
  ALKALINE PHOSPHATASE: 343 u/L
  ASPARTATE AMINOTRANSFERASE: 90.67 u/L
  BLOOD UREA NITROGEN: 15.67 mg/dL
  CARBON DIOXIDE: 25.67 mmol/L
  CHLORIDE: 103.33 MEQ/L
  CHOLESTEROL: 73.67 mg/dL
  CREATINE PHOSPHOKINASE: 330.67 u/L
  CREATININE: 0.38 mg/dL
  GLUCOSE: 167.33 mg/dL
  LACTATE DEHYDROGENASE: 139.33 u/L
  LIPASE: 12 u/L
  PHOSPHORUS: 14.17 mg/dL
  POTASSIUM: 7.29 MEQ/L
  SODIUM: 146.03 MEQ/L
  TOTAL BILIRUBIN: 0.17 mg/dL
  TOTAL PROTEIN: 5.8 G/DL
  URIC ACID: 2.07 mg/dL
[2]
  ABSOLUTE BASOPHIL: 0 CELLS/uL
  ABSOLUTE EOSINOPHIL: 0 CELLS/uL
  ABSOLUTE LYMPHOCYTE: 11544.67 CELLS/uL
  ABSOLUTE MONOCYTE: 213 CELLS/uL
  ABSOLUTE SEGMENTED NEUTROPHIL: 1075.67 CELLS/uL
  BASOPHIL: 0%
  EOSINOPHIL: 0%
  ERYTHROCYTE COUNT: 5.16 x10E6/uL
  HEMATOCRIT: 32.83%
  HEMOGLOBIN: 12.33 G/DL
  LEUKOCYTE COUNT: 12.83 x10E3/uL
  LYMPHOCYTE: 90%
  MEAN CORPUSCULAR HEMOGLOBIN: 23.93 pg
  MEAN CORPUSCULAR HEMOGLOBIN CONCENTRATION: 37.77 G/DL
  MEAN CORPUSCULAR VOLUME: 63.47 fL
  MONOCYTE: 1.67%
  NEUTROPHIL: 8.33%
  NUCLEATED RED BLOOD CELLS: 0 /100WBC
  PLATELET COUNT: 1107.67 x10E3/uL
  ALANINE AMINOTRANSFERASE: 62.33 u/L
  ALBUMIN: 4.3 G/DL
  ALKALINE PHOSPHATASE: 354.67 u/L
  ASPARTATE AMINOTRANSFERASE: 90.33 u/L
  BLOOD UREA NITROGEN: 17.67 mg/dL
  CARBON DIOXIDE: 23 mmol/L
  CHLORIDE: 104.67 MEQ/L
  CHOLESTEROL: 70.33 mg/dL
  CREATINE PHOSPHOKINASE: 349.67 u/L
  CREATININE: 0.49 mg/dL
  GLUCOSE: 153 mg/dL
  LACTATE DEHYDROGENASE: 186 u/L
  LIPASE: 11 u/L
  PHOSPHORUS: 11.7 mg/dL
  POTASSIUM: 6.42 MEQ/L
  SODIUM: 146.17 MEQ/L
  TOTAL BILIRUBIN: 0.2 mg/dL
  TOTAL PROTEIN: 6.03 G/DL
  URIC ACID: 1.63 mg/dL
[3]
  ABSOLUTE BASOPHIL: 0 CELLS/uL
  ABSOLUTE EOSINOPHIL: 92 CELLS/uL
  ABSOLUTE LYMPHOCYTE: 10640.67 CELLS/uL
  ABSOLUTE MONOCYTE: 57.67 CELLS/uL
  ABSOLUTE SEGMENTED NEUTROPHIL: 1309.67 CELLS/uL
  BASOPHIL: 0%
  EOSINOPHIL: 0.67%
  ERYTHROCYTE COUNT: 5.89 x10E6/uL
  HEMATOCRIT: 38.83%
  HEMOGLOBIN: 13.87 G/DL
  LEUKOCYTE COUNT: 12.1 x10E3/uL
  LYMPHOCYTE: 88%
  MEAN CORPUSCULAR HEMOGLOBIN: 23.53 pg
  MEAN CORPUSCULAR HEMOGLOBIN CONCENTRATION: 35.73 G/DL
  MEAN CORPUSCULAR VOLUME: 65.93 fL
  MONOCYTE: 0.33%
  NEUTROPHIL: 11%
  NUCLEATED RED BLOOD CELLS: 0.33 /100WBC
  PLATELET COUNT: 1356.67 x10E3/uL
  ALANINE AMINOTRANSFERASE: 52.33 u/L
  ALBUMIN: 4.4 G/DL
  ALKALINE PHOSPHATASE: 407.67 u/L
  ASPARTATE AMINOTRANSFERASE: 70.33 u/L
  BLOOD UREA NITROGEN: 16.67 mg/dL
  CARBON DIOXIDE: 29.33 mmol/L
  CHLORIDE: 102.33 MEQ/L
  CHOLESTEROL: 85.33 mg/dL
  CREATINE PHOSPHOKINASE: 225 u/L
  CREATININE: 0.27 mg/dL
  GLUCOSE: 150 mg/dL
  LACTATE DEHYDROGENASE: 77 u/L
  LIPASE: 9.67 u/L
  PHOSPHORUS: 11.8 mg/dL
  POTASSIUM: 6.59 MEQ/L
  SODIUM: 146.77 MEQ/L
  TOTAL BILIRUBIN: 0.17 mg/dL
  TOTAL PROTEIN: 6.43 G/DL
  URIC ACID: 2.1 mg/dL
[4]
  ABSOLUTE BASOPHIL: 0 CELLS/uL
  ABSOLUTE EOSINOPHIL: 63 CELLS/uL
  ABSOLUTE LYMPHOCYTE: 13558.67 CELLS/uL
  ABSOLUTE MONOCYTE: 820 CELLS/uL
  ABSOLUTE SEGMENTED NEUTROPHIL: 3591.67 CELLS/uL
  BASOPHIL: 0%
  EOSINOPHIL: 0.33%
  ERYTHROCYTE COUNT: 5.88 x10E6/uL
  HEMATOCRIT: 37.4%
  HEMOGLOBIN: 14 G/DL
  LEUKOCYTE COUNT: 18.03 x10E3/uL
  LYMPHOCYTE: 75.33%
  MEAN CORPUSCULAR HEMOGLOBIN: 23.8 pg
  MEAN CORPUSCULAR HEMOGLOBIN CONCENTRATION: 37.47 G/DL
  MEAN CORPUSCULAR VOLUME: 63.57 fL
  MONOCYTE: 4.67%
  NEUTROPHIL: 19.67%
  NUCLEATED RED BLOOD CELLS: 0 /100WBC
  PLATELET COUNT: 1367 x10E3/uL
  ALANINE AMINOTRANSFERASE: 57.67 u/L
  ALBUMIN: 4 G/DL
  ALKALINE PHOSPHATASE: 325.67 u/L
  ASPARTATE AMINOTRANSFERASE: 70.67 u/L
  BLOOD UREA NITROGEN: 19 mg/dL
  CARBON DIOXIDE: 23.67 mmol/L
  CHLORIDE: 104.67 MEQ/L
  CHOLESTEROL: 86.33 mg/dL
  CREATINE PHOSPHOKINASE: 235.67 u/L
  CREATININE: 0.3 mg/dL
  GLUCOSE: 163.33 mg/dL
  LACTATE DEHYDROGENASE: 138.67 u/L
  LIPASE: 10 u/L
  PHOSPHORUS: 12.13 mg/dL
  POTASSIUM: 6.32 MEQ/L
  SODIUM: 145.77 MEQ/L
  TOTAL BILIRUBIN: 0.13 mg/dL
  TOTAL PROTEIN: 6.3 G/DL
  URIC ACID: 1.7 mg/dL
